{
  "source": "ChEMBL document CHEMBL4420066",
  "about": "“Aryl amine substituted quinoxaline used as anticancer drugs” (2017)",
  "key": {"Hep 3B2 [1]": {"system": "Hep 3B2", "assay": "Induction of apoptosis in human Hep3B cells assessed as caspase-9 activation at 0.5 to 4 uM incubated for 48 hrs by Western blotting analysis", "format": "functional, cell-based"}, "Homo sapiens [2]": {"organism": "Homo sapiens", "assay": "Inhibition of CIP2A protein expression in human PLC5 cells by Western blotting analysis", "format": "functional, cell-based"}, "SK-HEP1 [3]": {"system": "SK-HEP1", "assay": "Inhibition of PP2A-A protein expression in human SKHEP1 cells at 1 uM incubated for 24 hrs by Western blotting analysis", "format": "functional, cell-based"}, "Homo sapiens [4]": {"organism": "Homo sapiens", "assay": "Inhibition of CIP2A mRNA expression in human PLC5 cells at 1 to 4 uM by RT-PCR analysis", "format": "functional, cell-based"}, "SK-HEP1 [5]": {"system": "SK-HEP1", "assay": "Inhibition of CIP2A protein expression in human SKHEP1 cells assessed as CIP2A protein expression ratio level at 1uM by Western blotting analysis (Rvb =1)", "format": "functional"}, "Hep 3B2 [6]": {"system": "Hep 3B2", "assay": "Inhibition of CIP2A protein expression in human Hep3B cells assessed as CIP2A protein expression ratio level at 4 uM by Western blotting analysis (Rvb =1)", "format": "functional"}, "SK-HEP1 [7]": {"system": "SK-HEP1", "assay": "Induction of apoptosis in human SKHEP1 cells assessed as induction of PARP cleavage at 0.5 to 4 uM incubated for 48 hrs by Western blotting analysis", "format": "functional, cell-based"}, "[8]": {"molecular_target": "T1, Serine/threonine-protein kinase AKT (Homo sapiens) (UniProt P31751+Q9Y243+P31749)", "T1 sequence (P31749 whole entry, looked up)": "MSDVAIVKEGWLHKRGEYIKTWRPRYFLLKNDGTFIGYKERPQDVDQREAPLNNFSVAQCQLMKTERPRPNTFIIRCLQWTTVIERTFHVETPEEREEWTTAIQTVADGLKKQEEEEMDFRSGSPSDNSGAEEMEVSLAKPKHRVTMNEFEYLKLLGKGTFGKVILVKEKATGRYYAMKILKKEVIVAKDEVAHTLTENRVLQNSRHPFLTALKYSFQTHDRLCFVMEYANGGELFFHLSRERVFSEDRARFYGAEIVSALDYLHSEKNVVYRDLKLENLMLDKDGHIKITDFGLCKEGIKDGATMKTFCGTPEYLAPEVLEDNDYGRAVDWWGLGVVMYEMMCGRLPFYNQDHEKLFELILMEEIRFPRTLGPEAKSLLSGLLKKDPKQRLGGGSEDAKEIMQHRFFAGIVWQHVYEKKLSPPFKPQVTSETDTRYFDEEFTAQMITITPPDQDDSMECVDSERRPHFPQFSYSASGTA", "T1 sequence (P31751 whole entry, looked up)": "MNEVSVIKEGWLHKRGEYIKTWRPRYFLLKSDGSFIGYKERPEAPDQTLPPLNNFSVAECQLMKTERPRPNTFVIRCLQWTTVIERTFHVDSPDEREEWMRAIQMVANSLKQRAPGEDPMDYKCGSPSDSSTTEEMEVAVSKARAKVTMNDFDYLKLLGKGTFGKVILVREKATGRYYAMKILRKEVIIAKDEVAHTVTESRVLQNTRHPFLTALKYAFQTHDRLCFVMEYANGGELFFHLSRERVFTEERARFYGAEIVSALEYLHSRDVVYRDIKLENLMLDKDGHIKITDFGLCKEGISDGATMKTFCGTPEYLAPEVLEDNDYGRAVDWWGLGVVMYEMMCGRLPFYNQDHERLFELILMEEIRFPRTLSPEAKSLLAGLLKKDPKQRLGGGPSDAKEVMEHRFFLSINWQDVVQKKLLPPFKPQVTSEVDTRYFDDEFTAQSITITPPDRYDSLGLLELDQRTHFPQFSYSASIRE", "T1 sequence (Q9Y243 whole entry, looked up)": "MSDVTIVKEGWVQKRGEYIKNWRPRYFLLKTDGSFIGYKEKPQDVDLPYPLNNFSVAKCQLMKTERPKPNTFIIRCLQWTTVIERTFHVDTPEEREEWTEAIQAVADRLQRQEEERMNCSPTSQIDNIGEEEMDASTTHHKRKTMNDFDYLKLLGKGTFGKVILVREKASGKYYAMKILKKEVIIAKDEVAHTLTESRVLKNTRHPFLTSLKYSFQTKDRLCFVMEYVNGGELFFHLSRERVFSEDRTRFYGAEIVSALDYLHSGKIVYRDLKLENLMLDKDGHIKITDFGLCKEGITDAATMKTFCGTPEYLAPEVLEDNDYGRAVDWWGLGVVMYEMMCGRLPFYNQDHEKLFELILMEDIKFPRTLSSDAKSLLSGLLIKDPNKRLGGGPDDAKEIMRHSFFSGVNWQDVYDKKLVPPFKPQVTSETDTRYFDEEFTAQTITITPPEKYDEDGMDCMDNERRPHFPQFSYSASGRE", "assay": "Inhibition of Akt phosphorylation at S473 residue in human PLC5 cells at 2 uM incubated for 24 hrs in presence of 100 nM PP2A inhibitor okadaic acid by Western blotting analysis", "format": "cell-based"}, "Hep 3B2 [9]": {"system": "Hep 3B2", "assay": "Inhibition of CIP2A protein expression in human Hep3B cells by Western blotting analysis", "format": "functional, cell-based"}, "HA22T cell line [10]": {"system": "HA22T cell line", "assay": "Induction of apoptosis in human HA22T cells assessed as caspase-3 activation at 0.5 to 4 uM incubated for 48 hrs by Western blotting analysis", "format": "functional, cell-based"}, "[11]": {"molecular_target": "T1, Serine/threonine-protein kinase AKT (Homo sapiens)", "assay": "Inhibition of Akt phosphorylation at S473 residue in human PLC5 cells by Western blotting analysis", "format": "cell-based"}, "[12]": {"molecular_target": "T1, Serine/threonine-protein kinase AKT (Homo sapiens)", "assay": "Inhibition of Akt phosphorylation at S473 residue in human HA22T cells at 1 uM by Western blotting analysis", "format": "cell-based", "conditions": "TDE = time-dependent effect"}, "Homo sapiens [13]": {"organism": "Homo sapiens", "assay": "Induction of apoptosis in human PLC5 cells with ectopic overexpression of GFP-tagged Elk-1 at 2 uM incubated for 24 hrs by annexin-V-FITC staining based by flow cytometry", "format": "functional, cell-based"}, "HA22T cell line [14]": {"system": "HA22T cell line", "assay": "Induction of apoptosis in human HA22T cells assessed as induction of DNA fragmentation at 1 uM incubated for 24 hrs by ELISA", "format": "functional, cell-based"}, "Homo sapiens [15]": {"organism": "Homo sapiens", "assay": "Activation of PP2A in human PLC5 cells assessed as minimal concentration causing increase in protein phosphatase activity incubated for 24 hrs using phosphopeptide substrate incubated for 10 mins by malachite green-phosphate complex assay", "format": "cell-based"}, "SK-HEP1 [16]": {"system": "SK-HEP1", "assay": "Inhibition of PP2A-C protein expression in human SKHEP1 cells at 1 uM incubated for 24 hrs by Western blotting analysis", "format": "functional, cell-based"}, "SK-HEP1 [17]": {"system": "SK-HEP1", "assay": "Induction of apoptosis in human SKHEP1 cells assessed as induction of DNA fragmentation at 1 uM incubated for 24 hrs by ELISA", "format": "functional, cell-based"}, "HA22T cell line [18]": {"system": "HA22T cell line", "assay": "Inhibition of PP2A-C protein expression in human HA22T cells at 1 uM incubated for 24 hrs by Western blotting analysis", "format": "functional, cell-based"}, "Homo sapiens [19]": {"organism": "Homo sapiens", "assay": "Induction of apoptosis in human PLC5 cells at 2 uM incubated for 24 hrs in presence of PP2A-C siRNA by annexin-V-FITC staining based by flow cytometry", "format": "functional, cell-based"}, "[20]": {"assay": "Inhibition of CIP2A protein expression in human PLC5 cells assessed as CIP2A protein expression ratio level at 0.5 uM by Western blotting analysis (Rvb =1)", "format": "functional"}, "Mus musculus": {"system": "Mus musculus", "assay": "Suppression of CIP2A expression in tumor of human PLC5 cells xenografted in mouse at 10 mg/kg dosed for 4 weeks by Western blot analysis", "format": "functional, organism-based"}},
  "note": "The source made the active and inactive calls. The rule behind the calls is not given here.",
  "data": [
    {"compound": "C#Cc1cccc(Nc2nc3ccccc3nc2Nc2cccc(C#C)c2)c1", "values": [
      {"measurement": "Activity", "setting": "Hep 3B2 [1]", "result": "Dose-dependent effect"},
      {"measurement": "inhibition", "setting": "Homo sapiens [2]", "result": "Dose-dependent effect"},
      {"measurement": "inhibition", "setting": "SK-HEP1 [3]", "result": "inactive"},
      {"measurement": "inhibition", "setting": "Homo sapiens [4]", "result": "Active"},
      {"measurement": "Ratio", "setting": "SK-HEP1 [5]", "result": 0.32},
      {"measurement": "Ratio", "setting": "Hep 3B2 [6]", "result": 0.13},
      {"measurement": "Activity", "setting": "SK-HEP1 [7]", "result": "Dose-dependent effect"},
      {"measurement": "inhibition", "setting": "[8]", "result": "inactive"},
      {"measurement": "inhibition", "setting": "Hep 3B2 [9]", "result": "Dose-dependent effect"},
      {"measurement": "Activity", "setting": "HA22T cell line [10]", "result": "Dose-dependent effect"},
      {"measurement": "inhibition", "setting": "[11]", "result": "Dose-dependent effect"},
      {"measurement": "inhibition", "setting": "[12]", "result": "Tde"},
      {"measurement": "Activity", "setting": "Homo sapiens [13]", "result": "inactive"},
      {"measurement": "Activity", "setting": "HA22T cell line [14]", "result": "Active"},
      {"measurement": "MEC", "setting": "Homo sapiens [15]", "result": "100 to 200", "unit": "nM"},
      {"measurement": "inhibition", "setting": "SK-HEP1 [16]", "result": "inactive"},
      {"measurement": "Activity", "setting": "SK-HEP1 [17]", "result": "Active"},
      {"measurement": "inhibition", "setting": "HA22T cell line [18]", "result": "inactive"},
      {"measurement": "Activity", "setting": "Homo sapiens [19]", "result": "inactive"},
      {"measurement": "Ratio", "setting": "[20]", "result": 0.84},
      {"measurement": "Activity", "setting": "Mus musculus", "result": "Active"}
    ]}
  ]
}
